Tests used:
[1] = test system: Candida albicans (Ca) ATCC 10231; assay: Challenge Test (artificial contamination) of cosmetic formula; assay type: cell-based; details: 22° C., chlorhexidine digluconate 0.3%, gingerone 2%; for Log reduction number after 7 days of contact, relative to the control, Candida albicans: Amt weight %: sodium benzoate 0.6%
Description: (§1) 5 pure microorganism cultures are used.

[2] = test system: Escherichia coli (Ec) ATCC 8739; assay: as above; assay type: cell-based; details: 22° C., chlorhexidine digluconate 0.3%, gingerone 2%
Description: as §1

[3] = test system: Enterococcus faecalis (Ef) ATCC 33186; assay: as above; assay type: cell-based; details: 22° C., chlorhexidine digluconate 0.3%, gingerone 2%
Description: as §1

[4] = test system: Aspergillus niger (An) ATCC 6275; assay: as above; assay type: cell-based; details: 22° C., chlorhexidine digluconate 0.3%, gingerone 2%
Description: as §1

[5] = test system: Enterococcus faecalis (ATCC 33186); assay: Action kinetics in broth; assay type: cell-based; details: TS broth pH 5.2±0.3, 35° C., gingerone 2%, sodium benzoate 3.3%, chlorhexidine digluconate 2.2%
Description: (§2) The object of this example is to distinguish a compound according to the invention (gingerone) from the preserving agents conventionally used for protecting cosmetic formulations against microbial contamination, as regards the action kinetics.
(§3) The solutions are prepared in Trypto-casein-soya (TS) broth for the bacteria and in Sabouraud broth for the yeast. These solutions are adjusted to pH 5.2±0.3.
(§4) For each microbial solution, a growth control consisting of the appropriate culture medium alone is prepared.
(§5) The solutions in TS broth (36 ml) are inoculated separately with each of the bacteria (4 ml of microbial suspension) to a final content of 10^6 cfu/ml of mixture.
(§6) The inoculated samples are then placed in an incubator-agitator at 35° C.±2° C. Samples are taken after 6 hours, 24 hours, 48 hours, 72 hours and 7 days. Decimal dilutions are then prepared in Eugon LT100 broth. These dilutions are left for 30 minutes±15 minutes at 25° C. in order to neutralize the preserving agents, and are then double-seeded on the surface of Petri dishes containing Eugon LT100 agar.
(§7) The Petri dishes are then incubated in an oven at 35° C.±2° C. for a variable time depending on the strain concerned: • 48 hours; S. aureus; • 5 days: E. faecalis and C. albicans.
(§8) The results are expressed for each solution, each strain and each contact time as the number of cfu/ml of stock solution.

[6] = test system: Staphylococcus aureus (ATCC 6538); assay: Action kinetics in broth; assay type: cell-based; details: TS broth pH 5.2±0.3, 35° C., gingerone 2%, sodium benzoate 3.3%, chlorhexidine digluconate 2.2%
Description: as §2, §3, §4, §5, §6, §7, §8

[7] = test system: Pseudomonas aeruginosa (Pa) ATCC 19429; assay: Challenge Test (artificial contamination) of cosmetic formula; details: 22° C., chlorhexidine digluconate 0.3%, gingerone 2%
Description: The antimicrobial efficacy of a compound of formula (I) was evaluated via the Challenge Test or artificial contamination method.
The method of the challenge test consists of an artificial contamination of the sample with collection microbial strains (bacteria, yeasts and moulds) and evaluation of the number of revivable microorganisms seven days after the inoculation.
The gram-negative bacteria (Escherichia coli and Pseudomonas aeruginosa), gram-positive bacteria (Enterococcus faecalis), yeast (Candida albicans) and mould (Aspergillus niger) are seeded in the subculturing medium, respectively, the day before the inoculation for the bacteria and the yeast, and five days before the inoculation for the mould.
After homogenizing the microbial suspension, 0.2 ml of inoculum is introduced into each pill bottle (the suspensions are used pure: between 1×10^8 and 3×10^8 cfu per ml) and the microbial suspension in the 20 g of product (=cosmetic formula) is homogenized thoroughly using a spatula.
The content of microorganisms present in the product corresponds after homogenization to a concentration of 10^6 microorganisms per gram of product, i.e. inoculation to 1% of an inoculum containing 10^8 microorganisms per ml.
After 7 days of contact time between the microorganisms and the product at 22° C.±2° C. and in darkness, decimal dilutions are performed and the number of revivable microorganisms remaining in the product is counted.

[8] = test system: Candida albicans (ATCC 10231); assay: Action kinetics in broth; assay type: cell-based; details: Sabouraud broth pH 5.2±0.3, 35° C., gingerone 2%, sodium benzoate 3.3%, chlorhexidine digluconate 2.2%
Description: as §2, §3, §4
The solutions in Sabouraud broth (36 ml) are inoculated with the yeast (4 ml of suspension) to a final content of 10^6 cfu/ml.
as §6, §7, §8

[9] = test system: collection microbial strains (bacteria, yeasts and moulds); assay: Challenge Test, overall finding over strains and formulas; assay type: cell-based; details: three formulas, five strains, gingerone 2%
bacteria and yeast = assay: Action kinetics, overall conclusion; assay type: cell-based; details: gingerone 2%; in particular on the bacteria
Description: as §2, §6

[10] = 1st formula O/W emulsion, Amt weight %: phenoxyethanol 1%, sodium benzoate 0.6%
[11] = 2nd formula lotion (pH 7 ± 0.2), Amt weight %: sodium benzoate 0.6%, phenoxyethanol 1%
[12] = 3rd formula O/W emulsion, Amt weight %: sodium benzoate 0.6%

COc1cc(CCC(C)=O)ccc1O [Gingerone, gingerone]
Log reduction number after 7 days of contact, relative to the control, C. albicans [1, 10]: >4 Log | Log reduction number after 7 days of contact, relative to the control, Candida albicans ([1]; 2nd formula lotion (pH 7 ± 0.2), phenoxyethanol 1%): >3 Log | Log reduction number after 7 days of contact, relative to the control, Candida albicans ([1]; 3rd formula O/W emulsion): >4 Log | Log reduction number after 7 days of contact, relative to the control, E. coli [2, 10]: >4 Log | Log reduction number after 7 days of contact, relative to the control, E. coli [2, 11]: >4 Log | Log reduction number after 7 days of contact, relative to the control, E. coli [2, 12]: >4 Log | Log reduction number after 7 days of contact, relative to the control, E. faecalis [3, 10]: >4 Log | Log reduction number after 7 days of contact, relative to the control, E. faecalis [3, 11]: >0.5 Log | Log reduction number after 7 days of contact, relative to the control, E. faecalis [3, 12]: >4 Log | Log reduction number after 7 days of contact, relative to the control, A. niger [4, 10]: >4 Log | Log reduction number after 7 days of contact, relative to the control, A. niger [4, 11]: >4 Log | Log reduction number after 7 days of contact, relative to the control, A. niger [4, 12]: 0.6 Log | Number of cfu counted after strain/solution contact time, Enterococcus faecalis ([5]; contact time 0 hours): 2.5 × 10^6 cfu/ml | Number of cfu counted after strain/solution contact time, Enterococcus faecalis ([5]; contact time 6 hours): 4.4 × 10^5 cfu/ml | Number of cfu counted after strain/solution contact time, Enterococcus faecalis ([5]; contact time 24 hours): 1.2 × 10^4 cfu/ml | Number of cfu counted after strain/solution contact time, Enterococcus faecalis ([5]; contact time 48 hours): 6.3 × 10^2 cfu/ml | Number of cfu counted after strain/solution contact time, Enterococcus faecalis ([5]; contact time 72 hours): 80 cfu/ml | Number of cfu counted after strain/solution contact time, Enterococcus faecalis ([5]; contact time 168 hours): <10 cfu/ml | Number of cfu counted after strain/solution contact time, Staphylococcus aureus ([6]; contact time 0 hours, first series): 1.7 × 10^6 cfu/ml | Number of cfu counted after strain/solution contact time, Staphylococcus aureus ([6]; contact time 0 hours, second series of Table 1): 2.5 × 10^6 cfu/ml | Number of cfu counted after strain/solution contact time, Staphylococcus aureus ([6]; contact time 6 hours, first series): 1.2 × 10^6 cfu/ml | Number of cfu counted after strain/solution contact time, Staphylococcus aureus ([6]; contact time 6 hours, second series of Table 1): 1.2 × 10^6 cfu/ml | Number of cfu counted after strain/solution contact time, Staphylococcus aureus ([6]; contact time 24 hours, first series): 1.7 × 10^5 cfu/ml | Number of cfu counted after strain/solution contact time, Staphylococcus aureus ([6]; contact time 24 hours, second series of Table 1): 1.6 × 10^5 cfu/ml | Number of cfu counted after strain/solution contact time, Staphylococcus aureus ([6]; contact time 48 hours, first series): 8.1 × 10^3 cfu/ml | Number of cfu counted after strain/solution contact time, Staphylococcus aureus ([6]; contact time 48 hours, second series of Table 1): 9.6 × 10^3 cfu/ml | Number of cfu counted after strain/solution contact time, Staphylococcus aureus ([6]; contact time 72 hours, first series): 40 cfu/ml | Number of cfu counted after strain/solution contact time, Staphylococcus aureus ([6]; contact time 72 hours, second series of Table 1): 1.3 × 10^2 cfu/ml | Number of cfu counted after strain/solution contact time, Staphylococcus aureus ([6]; contact time 168 hours, first series): <100 cfu/ml | Number of cfu counted after strain/solution contact time, Staphylococcus aureus ([6]; contact time 168 hours, second series of Table 1): <10 cfu/ml | Log reduction number after 7 days of contact, relative to the control, P. aeruginosa [7, 10]: >4 Log | Log reduction number after 7 days of contact, relative to the control, P. aeruginosa [7, 11]: >3 Log | Log reduction number after 7 days of contact, relative to the control, P. aeruginosa [7, 12]: >4 Log | Number of cfu counted after strain/solution contact time, Candida albicans ([8]; contact time 0 hours): 2.9 × 10^6 cfu/ml | Number of cfu counted after strain/solution contact time, Candida albicans ([8]; contact time 6 hours): 2.9 × 10^2 cfu/ml | Number of cfu counted after strain/solution contact time, Candida albicans ([8]; contact time 24 hours): <10 cfu/ml | Number of cfu counted after strain/solution contact time, Candida albicans ([8]; contact time 48 hours): <10 cfu/ml | Number of cfu counted after strain/solution contact time, Candida albicans ([8]; contact time 72 hours): <10 cfu/ml | Number of cfu counted after strain/solution contact time, Candida albicans ([8]; contact time 168 hours): <10 cfu/ml | antimicrobial efficacy across strains and formulatory supports [9]: efficient irrespective of the strain and of the support | action kinetics in comparison with conventional preserving agents (bacteria and yeast): much more slowly

Reference: US20120269739A1, “COMPOSITION, USE, AND PRESERVATION METHOD” (L'OREAL, priority 2009, published 2012)
